# Laboratory results as given in patent US20090047235A1, “Paratransgenesis to Control Termites or Other Social Insects” (priority 2007, published 2009).
# Legend:
# [1] = tested on: termite protozoa (Pseudotrichonympha grassii Koidzumi, Holomastigotoides hartmanni Koidzumi, Spirotrichonympha leidyi Koidzumi); test: In vitro lytic peptide test on anaerobic cultures of termite hindgut protozoa; format: cell-based; settings: 50 μM peptide, after 5-10 minutes
# Description: (§1) Three protozoal species (Pseudotrichonympha grassii Koidzumi, Holomastigotoides hartmanni Koidzumi, and Spirotrichonympha leidyi Koidzumi) from the termite hindgut were maintained for 24 hrs in vitro, a sufficient time to allow testing of lytic peptides. The protozoa were removed from the termite hindgut in an anaerobic glove-box, and placed in sterile, sparged (Hydrogen 2.5%, Carbon dioxide 5% and Nitrogen 92.5%) Trager U (pH 7.0) saline solution. Positive controls for testing lytic peptides were established and validated with these cultures. The efficacy of the lytic peptides was then routinely tested prior to experiments to confirm both aerobic activity (using the “standard” T. pyriformis) and anaerobic activity (using cultures of the termite protozoa). One hundred percent mortality was observed after 5-10 minutes when any of these protozoa were treated with any one of three lytic peptides (hecate, melittin, or cecropin) at a 50 μM concentration, confirming the toxicity of the lytic peptides towards termite protozoa in an anaerobic environment that mimicked termite hindgut conditions.
# (§2) The efficacy of each lytic peptide solution was confirmed using T. pyriformis and termite protozoa cultures in vitro before each microinjection test. A 5 ml overnight culture of T. pyriformis was washed three times in sterile 10 mM Tris-HCl (pH 7.4), and suspended in 1 ml 10 mM Tris-HCl (pH 7.4). Subsequently, 100 μl aliquots were placed in a Sigmacote™-treated, 96-well microplate. The lytic peptides were dissolved in 10 mM Tris-HCl. A range of concentrations (25-500 μM) of lytic peptide was added to each of several wells, and the remaining wells were treated with 10 mM Tris-HCl (pH 7.4) as control. After confirming aerobic activity of the lytic peptide concentrations against T. pyriformis, lytic peptide efficacy was then tested against anaerobic cultures of termite protozoa. Sparged lytic peptide was added anaerobically to the sparged cultures of termite protozoa, and mortality was observed.
# Tetrahymena pyriformis = test: In vitro lytic peptide test on aerobic Tetrahymena pyriformis cultures; format: cell-based; settings: 50 μM peptide, after 5-10 minutes
# Protocol: The initial positive control for testing the efficacy of lytic peptide solutions was the aerobic, laboratory standard protozoan Tetrahymena pyriformis, cultures of which were purchased from Carolina Biological (#13-1182A) and maintained in proteose peptone media. Before each experiment, lytic peptide activity was tested using T. pyriformis.
# as §1
# as §2, with “After confirming aerobic activity of the lytic peptide concentrations against T. pyriformis, lytic peptide efficacy was then tested against anaerobic cultures of termite protozoa. Sparged lytic peptide was added anaerobically to the sparged cultures of termite protozoa, and mortality was observed.” left out
# [2] = tested on: termite workers (gut protozoa); test: Defaunation of termites by feeding Metronidazole-treated filter paper; format: in vivo; settings: for time to death of defaunated termites: Metronidazole feeding
# Protocol: Using an aspirator, six groups of 100 termite workers each were collected and placed in Petri dishes containing damp filter paper. In addition, 10 soldiers were added to each group to enhance the overall survivorship rate. […] The remaining three groups of termites were transferred to Petri dishes containing paper that had been dampened with autoclaved tap water. All six replicates were transferred to an incubator and mortality was recorded every 24 hours. […] Once defaunation had been confirmed, all six groups were thereafter provided only with filter paper dampened with sterile tap water. Mortality was recorded each day. Statistically significant differences in mortality between treatment groups and control groups were established using 95% confidence intervals.
# [3] = tested on: protozoa in the hindgut of termite workers; test: In vivo microinjection of lytic peptides into the termite hindgut; settings: for relative effectiveness against protozoa in vivo among peptides tested: hindgut microinjection, 50 μM; for time to defaunation of injected termite workers: ~0.5 μl of 50 μM lytic peptide injected into hindgut
# Description: A termite microinjection protocol was used to confirm directly the effect of lytic peptide in the hindgut. We first optimized the protocol by finding preferred conditions for each of the following: the time to immobilize a termite by cooling on ice; suitable methods for anchoring the termite in place for microinjection; and the maximum volume that could consistently be injected into the hindgut without causing direct trauma. Microinjection directly to the termite hindgut avoided the possibility of peptide degradation by non-specific protease activity in the foregut or midgut.
# Termite workers were immobilized by chilling on ice for 1.5 min, and were then mechanically aspirated, head-first, into a modified pipette tip that had been trimmed to expose the terminus of the termite. This “termite holder” was attached to a micromanipulator, and the insect was advanced to insert a Sigmacote™-treated, fine glass needle into the anus of the termite. Lytic peptide or control solution was injected under the control of a high-speed, electronic foot pedal with pulse length control, to ensure that a constant volume was reproducibly injected into each insect. Approximately 0.5 μl of 10 mM Tris-HCl (pH 7.4) (control) or 0.5 μl of 50 μM lytic peptide dissolved in 10 mM Tris-HCl (pH 7.4) was injected into the hindgut of each termite. A second control group of non-injected termite workers was also included. The termites were housed in 3 cm Petri dishes, in which damp filter paper was provided. At 24, 48, and 72 hrs guts from randomly selected termites from each treatment were extirpated, and observations were made of the presence and motility of protozoa.
# [4] = tested on: termite workers (gut protozoa); test: Termite feeding experiments with yeast expressing lytic peptide; format: in vivo; settings: summary statement
# Protocol: Lytic peptide-expressing and control Kluyveromyces lactis strains were used in termite feeding experiments. Aliquots of 2 ml YPGal in Sigmacote™-treated 15 ml Falcon tubes were inoculated with yeast, which were then grown for 3 days, with shaking at 225 rpm at 30° C. The strains grown were K. lactis engineered with the expression vector (control), K. lactis expressing the control protein MBP, and K. lactis expressing a lytic peptide gene (either hecate or hecate-GFP fusion). The cultures were washed three times with sterile, deionized water, and re-suspended in 500 μl sterile 10 mM galactose. Galactose was used because the coding sequences were under the control of the LAC4 promoter, a strong promoter whose activity is induced by galactose. Secretion of active lytic peptide by the transformed K. lactis into the growth media was verified using in vitro cultures of the protozoa T. pyriformis.
# Termites were collected in New Orleans, La., and were maintained on damp cardboard in plastic buckets at room temperature. Only termites that had been held in the laboratory less than 4 weeks were used in the feeding experiments. […]
# Termite mortality was recorded every three days. The number of viable termites was also recorded, as cannibalism in laboratory colonies has sometimes been observed. […]
# [5] = tested on: termite symbiotic protozoa; settings: preliminary data, poster 2002; cited from earlier work
Molecule,mortality of termite protozoa [1],mortality of T. pyriformis (Tetrahymena pyriformis),mortality of defaunated termites versus controls ([2]; 95% confidence intervals did not overlap),time to death of defaunated termites [2],time to death of defaunated termites ([2]; listed as metronidazole),time to defaunation of termite workers ([2]; filter paper treated with 400 μL Metronidazole (2 g/L)),relative effectiveness against protozoa in vivo among peptides tested [3],time to defaunation of injected termite workers [3],effect on protozoa in the termite gut [4],time to death of the insect without protozoa [4],killing of termite symbiotic protozoa in vitro [5]
cecropin,One hundred,One hundred,,,,,,,,,
Cc1ncc([N+](=O)[O-])n1CCO [Metronidazole],,,significantly higher mortality,six,six and about six,≤ 7 days,,,,,
falalkalkk alkklkkalk kal (FALALKALKKALKKLKKALKKA; This is the designed peptide known as hecate.),One hundred,One hundred,,,,,more effective against protozoa in vivo,72 h,kill all (or at least most) species of protozoa in the termite gut,about six,would kill termite symbiotic protozoa
CC[C@H](C)[C@H](NC(=O)CN)C(=O)NCC(=O)N[C@@H](C)C(=O)N[C@H](C(=O)N[C@@H](CC(C)C)C(=O)N[C@@H](CCCCN)C(=O)N[C@H](C(=O)N[C@@H](CC(C)C)C(=O)N[C@H](C(=O)N[C@H](C(=O)NCC(=O)N[C@@H](CC(C)C)C(=O)N1CCC[C@H]1C(=O)N[C@@H](C)C(=O)N[C@@H](CC(C)C)C(=O)N[C@H](C(=O)N[C@@H](CO)C(=O)N[C@@H](Cc1c[nH]c2ccccc12)C(=O)N[C@H](C(=O)N[C@@H](CCCCN)C(=O)N[C@@H](CCCNC(=N)N)C(=O)N[C@@H](CCCCN)C(=O)N[C@@H](CCCNC(=N)N)C(=O)N[C@@H](CCC(N)=O)C(=O)N[C@@H](CCC(N)=O)C(N)=O)[C@@H](C)CC)[C@@H](C)CC)[C@@H](C)O)[C@@H](C)O)C(C)C)C(C)C [melittin],One hundred,One hundred,,,,,more effective against protozoa in vivo,72 h,,,
